Measurements from patent US20260041622A1, “Reduction of Signs of Skin Aging” (CarboCode S.A., priority 2022, published 2026).

Columns and labels:
[1] = tested on: Laminin 5; experiment: Laminin-5 immunostaining along the dermal-epidermal junction of living human skin explants; format: cell-based; settings: 0.1% CNS18 in basic emulsion, topical, 4 days of treatment
Method: (§1) Human skin explants of an average diameter of 12 mm (±1 mm) were prepared on an abdoplasty coming from a person with a phototype II according to Fitzpatrick skin colour classification. The explants were kept in survival in BEM culture medium (BIO-EC's Explants Medium) at 37° C. in a humid, 5%—CO2 atmosphere.
(§2) The tested products E and P were applied topically at a rate of […] per 1 cm^2 explant (≈2 mg/cm^2), and spread using a small spatula on day 0 (D0), D2, D4 and D6. […] The culture medium was half renewed (l ml per well) on D2, D4 and D6.
(§3) On D0, the 3 explants from the batch TO were collected and cut into two parts. Half was fixed in buffered formalin solution, […] was frozen at −80° C. On D4 and D8, 3 explants from the concerned batches were collected and treated in the same way as in D0.
After fixation for 24 hours in buffered formalin, the samples were dehydrated and impregnated in paraffin using a Leica PEARL dehydration automat. The samples were embedded using a Leica EG 1160 embedding station. 5-μm-thick sections were made using a Leica RM 2125 Minot-type microtome, and the sections were mounted on Superfrost® histological glass slides. The frozen samples were cut into 7-μm-thick sections using a Leica CM 3050 cryostat. Sections were then mounted on Superfrost® plus silanized glass slides. […]
The immunostaining was assessed by microscopical observation.

[2] = tested on: Reconstructed Human Epidermis (RHE); experiment: Reconstructed Human Epidermis (RHE) treated topically with ceramide in base emulsion, LC-MS/MS proteomics; format: cell-based; settings: application on keratinocytes
Method: Material and methods: Reconstructed Human Epidermis (RHE) cell culture is used, as this system mimics the in vivo 3D structure of epidermal tissue as well as the conditions and processes that occur in normal epidermis. RHE are cultured using the medium provided by the manufacturer until analysis. RHE are maintained in survival for 24 hours, before RHE are topically treated with the respective ceramide in a base emulsion for 24 h. 3 RHE are treated with base emulsion alone and 3 more remained untreated as a control batch (Ctrl). RHE are incubated under classical cell culture conditions (37° C., 5% CO2).
Sample preparation and LC-MS/MS analysis: Protein is extracted using the Pierce Total Protein Extraction Kit (Thermo Fisher) according to manufacturer's recommendations. The protein is mixed with Laemmli buffer and heated to 37° C. for 30 min. Protein concentration is determined by the BCA method and standardized for all samples. The samples are separated by SDS-PAGE and digested with trypsin overnight. The peptides generated are acidified and separated. The mass spectra are queried using Proteome Discoverer (version 2.5). The resulting MS/MS data are queried against the Homo sapiens proteome UP000005640 (20371 reviewed entries). Results are filtered based on unique peptides >2, and global peptide scores. Analyses are performed using Proteome Discoverer 2.5 to check for overall sample quality.
Bioinformatics and statistical analysis: Proteomic analysis returned a mean total of 34961 high-quality peptides corresponding to a mean 2422 identifiable and quantifiable RHE proteins among conditions. A summary of proteins differentially expressed within conditions is provided in Annex 3. Proteins with a p-value 0.05 in at least one of the concentrations tested for a lipid are considered significant and used for pairwise comparisons. Relevant proteins are classified by their biological processes and associated pathways using the publicly available gene ontology (GO) database provided by the Gene Ontology Consortium and Reactome. Interactome analysis was performed using Cytoscape combined with STRING.

[3] = tested on: Collagen IV; experiment: Collagen IV immunostaining along the dermal-epidermal junction of living human skin explants; format: cell-based; settings: 0.1% CNS18 in basic emulsion, topical, 8 days of treatment
Method: as §1, §2, §3
After fixation for 24 hours in buffered formalin, the samples were dehydrated and impregnated in paraffin using a Leica PEARL dehydration automat. The samples were embedded using a Leica EG 1160 embedding station. […]
Collagen IV immunostaining was performed on frozen skin sections with a monoclonal anti-collagen IV antibody (Dako, ref M0785, clone CIV 22) diluted at 1:25 in PBS-BSA 0.3%-Tween 20 at 0.05% and incubated for 1 h at room temperature. […] The immunostaining was assessed by microscopical observation.

[4] = tested on: IL-1α; experiment: IL-1α ELISA quantification in BEM culture medium of skin explants; format: cell-based, human; settings: 0.05% GlcCNS18 in basic emulsion, topical
Method: Human skin explants of an average diameter of 11 mm (+1 mm) were prepared on an abdoplasty coming from a person with a II phototype according to Fitzpatrick skin colour classification. The explants were kept in survival in BEM culture medium (BIO-EC's Explants Medium) at 37° C. in a humid, 5%—CO2 atmosphere.
The tested products E and P were applied topically at a rate of 2 μL per 1 cm^2 explant (2 mg/cm^2), and spread using a small spatula on day 0 (D0), D1, D2 and D5. […] The culture medium was half renewed (1 ml per well) on D1, D2 and completely renewed (2 mL per well) on D5.
On D0, the 3 explants from the batch TO were collected and cut into two parts. One part was fixed in buffered formalin solution, and the other part was frozen at −80° C. for histological analysis. On D6, 4 explants from the concerned batches were collected and treated in the same way than in D0. The culture medium BEM of all batches was collected on D6 (2 mL per explant) and stored at −20° C. for dosages.
IL-1α dosage was performed with human IL-1α ELISA kit (Cayman, ref 583301). According to provider's guidelines, the culture medium and the IL-1α standard were incubated with acetylcholinesterase (AChE) Fab′ conjugate binding IL-1α in wells which contain coated IL-1α antibody, overnight at 4° C. […] Absorbance at 412 nm was measured using the M200Pro Tecan microplate reader and Magellan7 software. […]

[5] = 0.01%, 0.03%, 0.15% ceramide in vehicle vs vehicle, 24 h

In the case of `CCCCCCCCCCCCCC=CC(O)C(CO)NC(=O)CCCCCCCCCCCCCCCCC` (centres unmarked) [Cer NS], the “increase in expression of laminin-5” value [1] was 26%, the “regulation of Kallikrein-5” value [2] was “up-regulation” and the “regulation of LC3A (microtubule-associated proteins 1A/1B light chain 3A)” value [2] was “up-regulation”. The “regulation of NAD-dependent protein deacetylase sirtuin-2 (sirtuin-2)” value (“regulation … (sirtuin-2)” for short) [2] was “up-regulation”, the “regulation of cornifin-B” value [2] was “up-regulation” and the “regulation of protein S100-A2” value [2] was “down-regulation”. For the same compound, the “regulation of protein S100-A9” value [2] was “down-regulation”, the “regulation of ECM1 (Extracellular Matrix Protein 1)” value (shortened to “regulation of ECM1”) [2, 5] was “up-regulation” and the “regulation of Laminin-5” value [2, 5] was “up-regulation”. For the same compound, the “regulation of Plakophilin-2” value [2, 5] was “up-regulation”, the “regulation of Syndecan-1” value [2, 5] was “up-regulation” and the “increase in expression of collagen IV” value [3] was 41%.

`CCCCCCCCCCCCCC=CC(O)C(COC1OC(CO)C(O)C(O)C1O)NC(=O)CCCCCCCCCCCCCCCCC` (centres unmarked) [GlcCer] was tested, and the IL-1α release ([4]; day 6) was “increased”, the IL-1α release ([4]; day 6, listed as GlcCNS) was “significant increase” and the “regulation of ATP synthase subunit delta (mitochondrial)” value [2] was “up-regulation”. For the same compound, the “regulation of ATP synthase subunit g (mitochondrial)” value (“regulation of ATP synthase subunit g” below) [2] was “up-regulation”, the “regulation of ATP-dependent zinc metalloprotease YME1L1” value [2] was “up-regulation” and the “regulation of LC3A (microtubule-associated proteins 1A/1B light chain 3A)” value [2] was “up-regulation”. The “regulation of NAD-dependent malic enzyme (mitochondrial)” value [2] was “up-regulation”, the “regulation of NADH dehydrogenase [ubiquinone]1 alpha subcomplex subunit 8” value [2] was “up-regulation” and the “regulation of NADH dehydrogenase [ubiquinone] iron-sulfur protein 2 (mitochondrial)” value [2] was “up-regulation”. The “regulation of cytochrome c oxidase subunit 6C” value [2] was “up-regulation”, the “regulation of interleukin-1-alpha (IL-1α)” value [2] was “down-regulation” and the “regulation of nuclear factor NF-kappa-B p105 subunit” value [2] was “down-regulation”. The “regulation of phosphomevalonate kinase” value [2] was “up-regulation”, the “regulation of protein S100-A2” value [2] was “down-regulation” and the “regulation of protein S100-A9” value [2] was “down-regulation”.

With `CCCCCCCCCCCCCCCCCC(=O)NC(CO)C(O)CCCCCCCCCCCCCCC` (centres unmarked) [Cer NG] the “regulation of ATP synthase subunit delta (mitochondrial)” value [2] was “upregulation”, the “regulation of ATP synthase subunit g” value [2] was “upregulation” and the “regulation … (sirtuin-2)” value [2] was “up-regulation”. For the same compound, the “regulation of cytochrome c oxidase subunit 6C” value [2] was “upregulation”, the “regulation of phosphomevalonate kinase” value [2] was “upregulation” and the “regulation of small proline-rich protein 2D” value [2] was “up-regulation”. For the same compound, the “regulation of ECM1” value [2, 5] was “up-regulation” and the “regulation of Integrin alpha-3” value [2, 5] was “up-regulation”.

In the case of `CCCCCCCCCCCCCCCCCC(=O)NC(CO)C(O)C(O)CCCCCCCCCCCCCC` (centres unmarked) [Cer NP], the “regulation of Keratin-17” value [2] was “up-regulation”, the “regulation of ECM1” value [2, 5] was “up-regulation” and the “regulation of Syndecan-1” value [2, 5] was “up-regulation”.

`CCCCCCCCCCCCCC=CC(O)C(COC1OC(CO)C(OC2OC(CO)C(O)C(O)C2O)C(O)C1O)NC(=O)CCCCCCCCCCCCCCCCC` (centres unmarked) [LacCer] was tested, and the “regulation of ATP synthase subunit delta (mitochondrial)” value [2] was “upregulation”, the “regulation of ATP synthase subunit g” value [2] was “upregulation” and the “regulation of ATP-dependent zinc metalloprotease YME1L1” value [2] was “upregulation”. For the same compound, the “regulation of Glutathione S-transferase Mu 2” value [2] was “up-regulation”, the “regulation of LC3B (microtubule-associated proteins 1A/1B light chain 3B)” value [2] was “up-regulation” and the “regulation of NAD-dependent malic enzyme (mitochondrial)” value [2] was “upregulation”. The “regulation … (sirtuin-2)” value [2] was “up-regulation”, the regulation of cystathione-gamma-lyase [2] was “up-regulation” and the “regulation of cytochrome b-cl complex subunit 9” value [2] was “upregulation”. For the same compound, the “regulation of cytochrome c oxidase subunit 2” value [2] was “upregulation”, the “regulation of cytochrome c oxidase subunit 6C” value [2] was “upregulation” and the “regulation of cytochrome c oxidase subunit NDUFA4” value [2] was “upregulation”. The “regulation of phosphomevalonate kinase” value [2] was “upregulation”, the “regulation of ECM1” value [2, 5] was “up-regulation” and the “regulation of Syndecan-1” value [2, 5] was “up-regulation”.
